Several values for one entry are separate records, joined by “and”; a condition that tells them apart may be missing. Equal entries are not always repeated. Where two headings read alike, the source gives them in different places.
Tested on: HL-1 cells
Format: cell-based
[1] = HL-1 cells, 100 nM nifedipine in Tyrode's solution, 60 s
[2] = HL-1 cells, 100 nM nifedipine in Tyrode's solution, 120 s

For `COC(=O)C1=C(C)NC(C)=C(C(=O)OC)C1c1ccccc1[N+](=O)[O-]` [Nifedipine, nifedipine], the APD50 [1] was 106.0 ms, the APD90 [1] was 172.9 ms and the Amplitude [1] was 102.9 mV. The “Refractory Period” value [1] was 964.8 ms, the APD50 [2] was 59.1 ms and the APD90 [2] was 90.1 ms. The Amplitude [2] was 88.9 mV and the “Refractory Period” value [2] was 1022.3 ms.

For `NC1=N[C@H](O)[C@H]2[C@H]3O[C@]4(O)O[C@@H]([C@@H](O)[C@@]2(N1)[C@@H]4O)[C@]3(O)CO` [TTX, tetrodotoxin], the APD50 was 81.2 ms and 65.5 ms, the APD90 was 166.6 ms and 141.8 ms and the Amplitude was 113.4 mV and 91.9 mV. The “Refractory Period” value was 948.4 ms and 958.6 ms, the “effect on action potential amplitude” value was “lowers the amplitude” and the “effect on action potential duration at 50% or 90% repolarization” value was “reduces the action potential duration”. The “effect on repolarization duration” value was “shortening the repolarization duration”, the “effect on spike amplitude” value was “reducing the spike amplitude” and the “reversibility of the effect” value was “reversible”.

Source: US20240255464A1 (priority 2021, published 2024)
